Measured values from the supplement of paper PMC10307832.

Key:
Assay in all cases: relative viability (nuclei count vs DMSO), 5 days (fraction); higher = more cells survive
Nelarabine + Tozasertib = compound: COc1nc(N)nc2c1ncn2[C@@H]1O[C@H](CO)[C@@H](O)[C@@H]1O [Nelarabine] + Cc1cc(Nc2cc(N3CCN(C)CC3)nc(Sc3ccc(NC(=O)C4CC4)cc3)n2)n[nH]1 [Tozasertib] (partner 0.1 µM)
Method in brief: (§1)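 Lung cancer cell lines, seeded in 1536-well plates, were treated the following day by pin tool with a single drug or with five library-drug doses (not always all listed) in √10 steps on top of a fixed anchor-drug dose. Cells were fixed and nuclei stained in one step after 5 days, and nuclei were counted. Relative viability is the nuclei count for treated wells divided by that for vehicle wells, reported as medians of duplicate plates.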

Nelarabine + Vorinostat = compound: COc1nc(N)nc2c1ncn2[C@@H]1O[C@H](CO)[C@@H](O)[C@@H]1O [Nelarabine] + O=C(CCCCCCC(=O)Nc1ccccc1)NO [Vorinostat] (partner 1 µM)
Method in brief: as §1

Adavosertib + Decitabine = compound: C=CCn1c(=O)c2cnc(Nc3ccc(N4CCN(C)CC4)cc3)nc2n1-c1cccc(C(C)(C)O)n1 [Adavosertib] + Nc1ncn([C@H]2C[C@H](O)[C@@H](CO)O2)c(=O)n1 [Decitabine] (partner 2 µM)
Method in brief: as §1

Adavosertib + Crizotinib = compound: C=CCn1c(=O)c2cnc(Nc3ccc(N4CCN(C)CC4)cc3)nc2n1-c1cccc(C(C)(C)O)n1 [Adavosertib] + C[C@@H](Oc1cc(-c2cnn(C3CCNCC3)c2)cnc1N)c1c(Cl)ccc(F)c1Cl [Crizotinib] (partner 1 µM)
Method in brief: as §1

Cell Line | relative viability (Nelarabine + Tozasertib; first compound 0.01 µM) | relative viability (Nelarabine + Tozasertib; first compound 0.03162 µM) | relative viability (Nelarabine + Tozasertib; first compound 0.1 µM) | relative viability (Nelarabine + Tozasertib; first compound 0.3162 µM) | relative viability (Nelarabine + Tozasertib; first compound 1 µM) | relative viability (Nelarabine + Vorinostat; first compound 0.01 µM) | relative viability (Nelarabine + Vorinostat; first compound 0.03162 µM) | relative viability (Nelarabine + Vorinostat; first compound 0.1 µM) | relative viability (Nelarabine + Vorinostat; first compound 0.3162 µM) | relative viability (Nelarabine + Vorinostat; first compound 1 µM) | relative viability (Adavosertib + Decitabine; first compound 0.01 µM) | relative viability (Adavosertib + Decitabine; first compound 0.03162 µM) | relative viability (Adavosertib + Decitabine; first compound 0.1 µM) | relative viability (Adavosertib + Decitabine; first compound 0.3162 µM) | relative viability (Adavosertib + Crizotinib; first compound 0.01 µM) | relative viability (Adavosertib + Crizotinib; first compound 0.03162 µM) | relative viability (Adavosertib + Crizotinib; first compound 0.1 µM) | relative viability (Adavosertib + Crizotinib; first compound 0.3162 µM)
LOU-NH91 | 0.787 | 0.675 | 0.675 | 0.673 | 0.653 | 0.993 | 0.814 | 0.889 | 0.931 | 0.873 | 0.819 | 0.821 | 0.798 | 0.852 | 0.709 | 0.712 | 0.788 | 0.726
NCI-H1299 | – | – | – | – | – | – | – | – | – | – | – | – | – | – | 0.929 | 0.936 | 0.96 | 0.49
HCC-44 | 1.27 | 1.25 | 1 | 1.11 | 0.867 | 1.11 | 1.02 | 1.05 | 1.01 | 1.07 | 0.935 | 0.935 | 0.975 | 1 | 0.827 | 0.856 | 0.946 | 0.949
NCI-H1437 | 0.466 | 0.353 | 0.488 | 0.427 | 0.41 | 0.992 | 0.946 | 0.831 | 0.878 | 0.808 | 0.57 | 0.633 | 0.636 | 0.618 | 1 | 0.973 | 1.04 | 0.922
HARA | 0.119 | 0.112 | 0.0991 | 0.0991 | 0.105 | 0.658 | 0.543 | 0.532 | 0.581 | 0.544 | 0.486 | 0.554 | 0.473 | 0.423 | 1 | 1.06 | 1.04 | 0.354
EBC-1 | – | – | – | – | – | – | – | – | – | – | – | – | – | – | 0.206 | 0.192 | 0.206 | 0.175
NCI-H2085 | 0.847 | 0.914 | 0.733 | 0.882 | 0.736 | 0.788 | 0.814 | 0.77 | 0.819 | 0.816 | 0.547 | 0.504 | 0.574 | 0.47 | 0.748 | 0.866 | 0.946 | 0.85
NCI-H322M | 0.554 | 0.485 | 0.407 | 0.501 | 0.456 | 0.942 | 0.856 | 0.954 | 0.943 | 0.802 | 0.724 | 0.67 | 0.698 | 0.526 | – | 0.982 | 0.834 | 0.743
NCI-H1355 | 0.521 | 0.483 | 0.478 | 0.539 | 0.577 | 0.665 | 0.673 | 0.544 | 0.679 | 0.705 | 0.347 | 0.351 | 0.396 | 0.368 | 1.04 | 0.985 | 1.04 | 0.908
COR-L 105 | 0.356 | 0.353 | 0.302 | 0.362 | 0.433 | 0.805 | 0.887 | 0.952 | 1.12 | 0.726 | 0.691 | 0.6 | 0.618 | 0.651 | 0.746 | 0.836 | 0.795 | 0.747
